# Source: US20140031217A1, “HERBICIDAL COMPOSITIONS COMPRISING 4-AMINO-3-CHLORO-5-FLUORO-6-(4-CHLORO-2-FLUORO-3-METHOXYPHENYL)PYRIDINE-2-CARBOXYLIC ACID OR A DERIVATIVE THEREOF AND AUXIN TRANSPORT INHIBITORS” (DOW AGROSCIENCES LLC, priority 2012, published 2014)
# Columns and labels:
# [1] = test system: LEFCH; assay: Postemergence foliar-applied greenhouse weed control, LEFCH; assay type: in vivo, Leptochloa chinensis (L.) Nees
# Description: (§1) Seeds or nutlets of the desired test plant species were planted in a soil matrix prepared by mixing a loam or sandy loam soil (e.g., 28.6 percent silt, 18.8 percent clay, and 52.6 percent sand, with a pH of about 5.8 and an organic matter content of about 1.8 percent) and calcareous grit in an 80 to 20 ratio. The soil matrix was contained in plastic pots with a volume of 1 quart and a surface area of 83.6 square centimeters (cm^2). When required to ensure good germination and healthy plants, a fungicide treatment and/or other chemical or physical treatment was applied. The plants were grown for 8-22 days in a greenhouse with an approximate 14 h photoperiod which was maintained at about 29° C. during the day and 26° C. during the night. Nutrients (Peters Excel® 15-5-15 5-Ca 2-Mg and iron chelate) were applied in the irrigation solution as needed and water was added on a regular basis. Supplemental lighting was provided with overhead metal halide 1000-Watt lamps as necessary. The plants were employed for testing when they reached the first through fourth true leaf stage.
# (§2) Treatments consisted of the acid or esters of 4-amino-3-chloro-5-fluoro-6-(4-chloro-2-fluoro-3-methoxy-phenyl) pyridine-2-carboxylic acid (Compound A), each formulated as an SC (suspension concentrate), and various herbicidal components alone and in combination. Forms of compound A were applied on an acid equivalent basis.
# (§3) Other herbicidal components were applied on an active ingredient basis and included auxin transport inhibiting (ATI) herbicides chlorflurenol (technical material), chlorflurenol-methyl (technical material), diflufenzopyr (technical material), diflufenzopyr sodium (technical material), flurenol-methyl (technical material) and naptalam (technical material).
# (§4) Treatment requirements were calculated based upon the rates being tested, the concentration of active ingredient or acid equivalent in the formulation, and a 12 mL application volume at a rate of 187 L/ha.
# (§5) For treatments comprised of formulated and technical compounds, weighed amounts of the technical materials were placed individually in 25 mL glass vials and dissolved in a volume of 97:3 v/v acetone/DMSO to obtain 12× stock solutions, and measured amounts of the formulated compounds were placed individually in 25 mL glass vials and diluted in a volume of 1.5% (v/v) crop oil concentrate or water to obtain 12× stock solutions. […] Application solutions were prepared by adding an appropriate amount of each stock solution (e.g., 1 mL) and diluted to the appropriate final concentrations with the addition of an appropriate amount of an aqueous mixture of 1.5% (v/v) crop oil concentrate so that the final spray solutions contained 1.25% (v/v) crop oil concentrate. When required, additional water and/or 97:3 v/v acetone/DMSO was added to individual application solutions so that the final acetone and DMSO concentrations of the application solutions being compared were 8.1% and 0.25%, respectively.
# (§6) All stock solutions and applications solutions were visually inspected for compound compatibility prior to application. Spray solutions were applied to the plant material with an overhead Mandel track sprayer equipped with an 8002E nozzle calibrated to deliver 187 L/ha over an application area of 0.503 m^2 at a spray height of 18 to 20 inches (46 to 50 cm) above average plant canopy height. Control plants were sprayed in the same manner with the solvent blank.
# (§7) The treated plants and control plants were placed in a greenhouse as described above and watered by sub-irrigation to prevent wash-off of the test compounds. After approximately 3 weeks, the condition of the test plants as compared with that of the untreated plants was determined visually and scored on a scale of 0 to 100 percent where 0 corresponds to no injury or growth inhibition and 100 corresponds to complete kill. […]
# [2] = test system: BRAPP; assay: Postemergence foliar-applied greenhouse weed control, BRAPP; assay type: in vivo, Brachiaria platyphylla (Griseb.) Nash
# Description: as §1, §2, §3, §4, §5, §6, §7
Compound,"Visual Weed Control (%) Obs ([1]; 20 DAA, 4.38 gae/ha)","Visual Weed Control (%) Obs ([1]; 20 DAA, 8.75 gae/ha)","Visual Weed Control (%) Obs ([1]; 20 DAA, 17.5 gae/ha)","Visual Weed Control (%) Obs ([1]; 21 DAA, 8.75 gae/ha)","Visual Weed Control (%) Obs ([1]; 21 DAA, 17.5 gae/ha)","Visual Weed Control (%) Obs ([2]; 21 DAA, 8.75 gae/ha)","Visual Weed Control (%) Obs ([1]; 21 DAA, 4.38 gae/ha)","Visual Weed Control (%) Obs ([1]; 22 DAA, 32 gae/ha)","Visual Weed Control (%) Obs ([2]; 21 DAA, 4.38 gae/ha)","Visual Weed Control (%) Obs ([2]; 21 DAA, 17.5 gae/ha)","Visual Weed Control (%) Obs ([2]; 22 DAA, 8 gae/ha)","Visual Weed Control (%) Obs ([2]; 22 DAA, 16 gae/ha)"
"COc1c(Cl)ccc(-c2nc(C(=O)O)c(Cl)c(N)c2F)c1F [Compound A Acid, 4-amino-3-chloro-6-(4-chloro-2-fluoro-3-methoxyphenyl)-5-fluoropyridine-2-carboxylic acid]",0%,30%,30%,30%,30%,60%,–,–,–,–,–,–
COc1c(Cl)ccc(-c2nc(C(=O)OCc3ccccc3)c(Cl)c(N)c2F)c1F [Compound A Benzyl Ester],15%,30%,–,40%,50%,75%,15%,40%,70%,95%,35%,80%
